# Measurements as given in patent US20230074545A1, “TREATMENT OF CANCER WITH CDK12/13 INHIBITORS” (Kinnate Biopharma Inc., priority 2019, published 2023).
# How the values were obtained:
# [1] = test system: non-CDK12/13 kinases; test: Radiometric kinase panel, summary; format: biochemical, human; details: 1 μM
# Method: The compounds 1-5 (see Table 1) were assayed for kinase activity at ProQinase (ProQinase GmbH, Reaction Biology; Freiburg, Germany) using their commercially available radiometric kinase assay services. Briefly, the compounds were provided as solids and were dissolved to 1×10^−03 M/100% DMSO stock solutions on the day of assay. All protein kinases were provided by ProQinase and were expressed in Sf9 insect cells or in E. coli as recombinant GST-fusion proteins or His-tagged proteins, either as full-length or enzymatically active fragments. All kinases were produced from human cDNAs and purified by either GSH-affinity chromatography or immobilized metal. The purity of the protein kinases was examined by SDS-PAGE/Coomassie staining, the identity was checked by mass spectroscopy. A radiometric protein kinase assay (^33PanQinase® Activity Assay) was used for measuring the kinase activity of the protein kinase. All kinase assays were performed in 96-well FlashPlates™ from PerkinElmer (Boston, Mass., USA) in a 50 microliter reaction volume. […]
# Compound 4 was analyzed for selectivity against a panel of other kinases at ProQinase using their commercially available radiometric kinase assay services and the methods described in Example 1.
# [2] = test system: BRCA1; test: DDR gene expression in HCC70 xenograft tumor cells; format: in vivo, CB-17 SCID mice; details: single intravenous dose 20 or 25 mg/kg; 6 and 24 hours after dose
# Method: A triple-negative xenograft model of breast cancer was used in this experiment. CB-17 SCID mice were inoculated with the HCC70 cells as the in vivo model for triple negative breast cancer. Each mouse was inoculated subcutaneously on the right flank with HCC70 tumor cells (5×10^6) in 0.1 mL of RPMI-1640 Medium and Matrigel mixture (1:1 ratio) for tumor development. The treatment started when the mean tumor size reached approximately 100-150 mm^3. Mice were treated with a single dose of either vehicle, 20 mg/kg compound 4, or 25 mg/kg of compound 4 intravenously. 0.5, 6, and 24 hours post dose, tumor cells were collected and analyzed for gene expression.
# [3] = test system: HCC70 tumors; test: HCC70 mouse xenograft model of triple-negative breast cancer; format: in vivo, CB-17 SCID female mice; details: compared to vehicle control
# From the text: To test the efficacy of the compounds in vivo, studies were done in mouse xenografts. For all studies, general procedures for animal care and housing were done in accordance with the standard, Commission on Life Sciences, National Research Council, Standard operating procedures (SOPs) of Pharmaron, Inc (Beijing, China). The mice were kept in laminar flow rooms at constant temperature and humidity with 3-5 mice in each cage with bedding changed once weekly. Animals were housed in polycarbonate cage which is in the size of 300×180×150 mm^3 and in an environmentally monitored, well-ventilated room maintained at a temperature of (22±3° C.) and a relative humidity of 40%-70% on a 12 hour:12 hour light:dark cycle with full spectrum lighting. […]
# Each mouse was inoculated subcutaneously on the right flank with HCC70 tumor cells (5×10^6) in 0.1 ml of RPMI-1640 Medium and Matrigel mixture (1:1 ratio) for tumor development. […] All study animals were monitored not only tumor growth but also behavior such as mobility, food and water consumption (by cage side checking only), body weight (BW), eye/hair matting and any other abnormal effect. Any mortality and/or abnormal clinical signs were recorded.
# The measurement of tumor size was conducted twice weekly with a caliper and recorded. […]
# Protocol-required measurements and observations were recorded manually onto excel spread sheets. […]
smiles,measurement,setting,value
"C=CC(=O)Nc1ccc(C(=O)N2CC[C@@H](Nc3ncc(C#N)cn3)C2)cc1 [Compound 4, (R)-N-(4-(3-((5-cyanopyrimidin-2-yl)amino)pyrrolidine-1-carbonyl)phenyl)acrylamide]",average percent of inhibition against non-CDK12/13 kinases,[1],low average percent of inhibition
same,BRCA1 expression in tumor cells,[2],reduced
same,T/C,[3]; 20 mg/kg intravenously biweekly for 14 days,−37%
same,T/C,[3]; 25 mg/kg intravenously biweekly for 14 days,−39%
